Data on 1 compound can be found in PubChem BioAssay AID651927 (Vanderbilt Specialized Chemistry Center, 2012).

This test concerns the target Muscarinic acetylcholine receptor M5 (Homo sapiens) (UniProt P08912). The test can be described thus: human M5 positive allosteric modulators, CHO cells (AID 651927). The note with it: CHO-K1 hM5, Fluo-4 calcium flux, ACh EC20 potentiation.

The structures appear in SMILES notation.

Muscarinic acetylcholine receptor M5 (Homo sapiens), sequence (P08912 whole entry, looked up): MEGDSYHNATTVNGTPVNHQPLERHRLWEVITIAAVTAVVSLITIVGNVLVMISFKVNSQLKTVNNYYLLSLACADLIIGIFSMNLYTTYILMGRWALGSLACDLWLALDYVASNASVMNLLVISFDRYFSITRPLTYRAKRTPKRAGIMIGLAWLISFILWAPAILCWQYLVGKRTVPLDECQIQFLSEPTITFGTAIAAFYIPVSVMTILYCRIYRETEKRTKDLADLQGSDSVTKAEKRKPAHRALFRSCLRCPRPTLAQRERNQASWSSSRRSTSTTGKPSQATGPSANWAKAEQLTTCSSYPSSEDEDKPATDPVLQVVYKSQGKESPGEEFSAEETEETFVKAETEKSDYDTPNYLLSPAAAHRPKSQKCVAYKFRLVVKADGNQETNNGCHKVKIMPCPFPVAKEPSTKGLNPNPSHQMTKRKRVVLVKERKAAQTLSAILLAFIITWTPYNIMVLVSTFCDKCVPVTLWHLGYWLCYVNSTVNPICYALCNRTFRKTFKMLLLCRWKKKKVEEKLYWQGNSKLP

Consider `O=C1C(=O)N(CCOc2ccccc2)c2ccc(OC(F)(F)F)cc21`, for which the 50% effective concentration (EC50) is 589 nM.
